Paper PMC10988555, “Exploiting Co(III)-Cyclopentadienyl Complexes To Develop Anticancer Agents” (Inorganic Chemistry, 2024)

Legend:
plasmidic DNA (pUC18) = assay: Interaction with pDNA and cleavage mechanism (agarose gel electrophoresis); type: biochemical; settings: 25 μM complex with NaN3, catalase or D2O, 24 h
Method: E. coli transformed with pUC18 was inoculated onto a plate of LB-agar medium (Luria–Bertani) (Applichem, Darmstadt, Germany) supplemented with ampicillin (100 μg/mL) (Bioline, London, UK) and incubated for 24 h at 37 °C. Then, the E. coli cells were inoculated in liquid LB medium, supplemented with ampicillin (100 μg/mL) for 24 h at 37 °C. After incubation, the plasmid DNA (pDNA) was extracted by using the Kit NZYSpeedy Miniprep, following the instructions provided by the manufacturer.
The extracted pDNA (100 ng) was incubated with 5, 25, 50, and 100 μM concentrations of complexes 2–4, with DMSO 0.1% or only pUC18. The solutions were prepared in 5 mM Tris–HCl, 50 mM NaCl, pH 7.02, buffer, and incubated for 24 h at 37 °C. A control of pDNA cleaved with Hind III endonuclease was also used. Electrophoresis was performed in 0.8% (w/v) agarose gel (NZYtech) in TAE buffer at 70 V constant voltage for 1 h. Electrophoresis gel image was acquired in the Gel Doc EZ Imager (Bio-Rad).
The pDNA (100 ng) was incubated with 25 μM of complexes 2–4, in the absence or presence of 50 μM of NaN3, 4 units of catalase from the bovine liver (2000–5000 U/mg, Sigma-Aldrich, Spain), and 25 mM of D2O. The solutions were prepared in 5 mM Tris–HCl, 50 mM NaCl, pH 7.02, buffer, and incubated for 24 h at 37 °C. A control of pDNA cleaved with Hind III endonuclease was also used. […]

[1] = test system: BAX and BCL-2 proteins in A2780 cell line; assay: BAX and BCL-2 protein expression by Western blot; type: cell-based, human; settings: A2780, IC50, 48 h, normalized against DMSO control (=1)
Method: The quantification of BAX and BCL-2 protein expression in the A2780 cell line incubated with different cobalt complexes in the A2780 cell line was determined by WB. For this, the A2780 cell line was cultivated in 25 cm^2 T-flasks at a density of 2 × 10^6 cells/mL and incubated for 24 h in the conditions described above. […] After 48 h incubation, the cells were washed and collected using cold PBS 1× and a cell scraper. The samples were centrifuged for 5 min at 700 × g and resuspended in fresh lysis buffer (150 mM NaCl, 5 mM ethylenediaminetetraacetic acid (EDTA), 50 mM Tris–HCl at pH 8.0, 2% (v/v) NP-40, 1× phosphatase inhibitors (PhosStop, Roche), 1× Protease inhibitors (complete ULTRA tablets, Mini, easypack, Roche), 1 mM phenylmethylsulfonylfuoride (PMSF) and 0.1% 1,4-dithiothreitol (v/v), DTT) and then storage at −80 °C for 2 h or until required. Cells were submitted to 5 ultrasound cycles and centrifuged at 1000 × g for 5 min. The total protein extract (supernatant) was quantified with Pierce Protein Assay Reagent (ThermoFisher Scientific) at 660 nm. […]
The membranes were incubated with WesternBright ECL subtract (Advansta) for 5 min in the dark and the film was exposed to the membranes in a dark room. […] Protein quantification was made by densitometry with ImageJ software.

With Cc1ccnc(-c2cc(C)ccn2)c1.O=S(=O)([O-])C(F)(F)F.O=S(=O)([O-])C(F)(F)F.[Co+3].c1cc[cH-]c1.c1ccc(P(c2ccccc2)c2ccccc2)cc1 [Complex 2, [Co(η^5-C5H5)(PPh3)(Me2bipy)][(CF3SO3)2]] the pDNA cleavage mechanism (plasmidic DNA (pUC18)) was “cleave pDNA through singlet oxygen”.

With O=S(=O)([O-])C(F)(F)F.O=S(=O)([O-])C(F)(F)F.[Co+3].c1cc[cH-]c1.c1ccc(P(c2ccccc2)c2ccccc2)cc1.c1cnc2c(c1)ccc1cccnc12 [Complex 3, [Co(η^5-C5H5)(PPh3)(phen)][(CF3SO3)2]] the BAX/BCL-2 ratio [1] was 2.8 and the pDNA cleavage mechanism (plasmidic DNA (pUC18)) was “cleave pDNA through singlet oxygen”.

Nc1cc2cccnc2c2ncccc12.O=S(=O)([O-])C(F)(F)F.O=S(=O)([O-])C(F)(F)F.[Co+3].c1cc[cH-]c1.c1ccc(P(c2ccccc2)c2ccccc2)cc1 [Complex 4, [CoCp(PPh3)(NH2phen)][(CF3SO3)2]] was tested, and the BAX/BCL-2 ratio [1] was < 1.
